The record followed here is ChEMBL document CHEMBL1212933, “Alcoholysis of naturally occurring imides: misleading interpretation of antifungal activities” (J Nat Prod, 2010).

In brackets after ≈: the same amount, converted by molar mass.

One assay has as its system Penicillium griseofulvum. The experiment in a line: Antifungal activity against Penicillium griseofulvum. It is filed as functional, organism-based.
A further assay deals with Cladosporium herbarum. Description: Antifungal activity against Cladosporium herbarum. It is filed as functional, organism-based.

Consider `CS/C=C/C(=O)N(C)C(=O)Cc1ccccc1` [PENIMIDE A], for which the EC50 – broadly, the midpoint of the concentration-response curve – stood at 3 µg/mL (≈ 12 µM) in the assay with Penicillium griseofulvum and 0.9 µg/mL (≈ 3.61 µM) in the assay on Cladosporium herbarum.
